# From patent publication US9580758B2, “System and method for the detection and treatment of infection by a microbial agent associated with HIV infection” (priority 2013, dated 2017)
# Tested on: Rickettsiales-like agent
# Assay type: cell-based
smiles,measurement,value
O=C(N[C@H](CO)[C@H](O)c1ccc([N+](=O)[O-])cc1)C(Cl)Cl [chloramphenicol],sensitivity of the 400 bp sequence (grown with the Rickettsiales-like agent) to treatment in vitro,sensitive
